# “Also recorded” adds a separate entry of the source.
# Experiment: Comment Code material properties: vapor pressure, ClogP, probability of ingredient color instability, odor detection threshold, melamine formaldehyde PMC headspace response ratio and leakage, liquid dish neat product liquid-air partition coefficient
# Format: physicochemical
# Settings: cell strings several class symbols together; each letter is one property class of L1
row,SMILES,Comment Code
1,CC1COC(C)(c2ccc3c(c2)C(C)(C)CCC3(C)C)O1 (stereo not shown) [Material 2],DFHJ
2,C=C1C2CCC(C)(C)C1CCC(OC)C2 (stereo not shown) [Material 7],BDEFHJK
3,CCOC1CCC(C(C)(C)CC)CC1 (stereo not shown) [Material 12],ADEFHJK
4,CC=CCOCC/C=C\CC [Material 19],ADEFHJKL
5,COC(C)(C)C1CC=C(C)CC1 (stereo not shown) [Material 20],ADHIJKL
6,CC1C(C)(C)C2=C(C3OC(C)(C)OC3CC2)C1(C)C (stereo not shown) [Material 23],DEFHJK
7,C=CC(C)(CCC=C(C)C)OC (stereo not shown) [Material 24],ADHIJKL
8,COc1ccccc1C=CC=O [Material 26],ACHK
9,CC(C)CCCC(C)CC=O (stereo not shown) [Material 27],ADGIJKL
10,CC1=CC(C)C2C(CCC(C)(C)C2O)C1 (stereo not shown) [Material 39],DEFHIJK
11,CC1=CCC(C=CC(C)(C)C(C)O)C1(C)C (stereo not shown) [Material 53],CEFHJ
12,CC=CC(=O)OCCCCCC [Material 55],ADEFHJKL
13,CC(C)=CCC/C(C)=C\COC=O [Material 59],BCEFHJK
14,C=CC(C)=CCC1OC1(C)C (stereo not shown) [Material 73],ADGIJKL
15,CCC(C)(O)/C=C/C=C(C)C (stereo not shown) [Material 81],BCEFGIJK
16,CC/C=C\CCOC(=O)C1CC1 [Material 84],BCEFHIKL
17,CCC(=O)OC(C)c1ccccc1 (stereo not shown) [Material 96],BCHJK
18,COC(=O)Cc1ccccc1 [Material 97],ACEFHIKL
19,CC1CCC2(CCCC(=O)O2)C1 (stereo not shown) [Material 107],BCEFGIKL
20,COC(=O)C=C(C)CCC=C(C)C [Material 111],BCHJKL
21,CCOc1cc(COC)ccc1O [Material 115],CFGK
22,COC(=O)C=C1CCCC1 [Material 116],ACEFHIKL
23,COC(C)(C)CCCC(C)C=O (stereo not shown) [Material 125],ACGIJK

row,SMILES,Comment Code
1,CC(C)C1CCC(CO)CC1 (stereo not shown) [Material 133],BDEFHIJK
2,CC1OC(C)C2Cc3ccccc3C2O1 (stereo not shown) [Material 141],CEFHJK
3,C=CC(C)(CCC=C(C)C)OC=O (stereo not shown) [Material 150],ACFHJK
4,C=CC(C)(CCC=C(C)C)OC(=O)CCC (stereo not shown) [Material 151],BDEFHJK
5,C=CC(C)(CCC=C(C)C)OC(C)=O (stereo not shown) [Material 154],BDHJK
6,C=CC(C)(O)CCC=C(C)C (stereo not shown) [Material 157],BCEFGIJK
7,CC/C=C\CCOC(=O)OC [Material 163],ACEFGKL
8,Cc1ccnc2ccccc12 [Material 166],BCEFHIKL
9,C=C(C)[C@@H]1CC=C(C)C(=O)C1 [Material 169],ACGIJKL
10,C=C1[C@H]2CC[C@H](CO)[C@@]23CC[C@H](C3)C1(C)C [Material 183],CEFHJK
11,CC1(CO)CC1CC1CC2CC2(C)C1(C)C (stereo not shown) [Material 185],DEFHJK
12,CC(C)C=CCO [Material 194],ACGIKL
13,CCC(C)C(=O)OC(C)C (stereo not shown) [Material 198],ACEFGIJKL
14,COc1c2ccoc2c(OC)c2oc(=O)ccc12 [Material 199],CFGJ
15,C=C(C)CC(C)OC(=O)C(C)C (stereo not shown) [Material 201],ADEFGIJKL
16,CC(=O)OCCCCCCC(C)C [Material 204],BDEFHJKL
17,CC(C)CCCCCCO [Material 205],BDEFGIKL
18,CC1CCCCCCCCCCCCC(=O)C1 (stereo not shown) [Material 206],DEFGJK
19,CC=Cc1ccc(OCc2ccccc2)c(OC)c1 [Material 212],DFHJ
20,CC=Cc1ccc(OC(C)=O)c(OC)c1 [Material 213],CFHJK
21,CC=Cc1ccc(O)c(OC)c1 [Material 214],CEFHIK
22,CC(=O)[C@@]1(C)CC2=C(CCCC2(C)C)C[C@@H]1C [Material 215],DHJK
23,CC(C)C(=O)OC1CC2CCC1(C)C2(C)C (stereo not shown) [Material 229],BDEFHIJK

row,SMILES,Comment Code
1,CC1C2CC(CC2C2CCC(O)CC2)C1(C)C (stereo not shown) [Material 230],DEFHJK
2,CCCCCCCC(=O)OCCC(C)C [Material 237],DEFHJK
3,CC(C)CCOC(=O)C(C)C [Material 239],ACEFGIJKL
4,CC1(C)C2=C(CO)CCC(C)(C)C23CCC1C3 (stereo not shown) [Material 248],DEFHJK; also recorded: BDEFHJK
5,O=C(O)CCc1ccccc1 [Material 255],CEFHIK
6,CC1(C)CCc2ccc(CCC=O)cc21 [Material 260],DHJK
7,CCCCCCOC(=O)CC [Material 264],ADEFHIKL
8,CCCCCCOC(=O)CCC [Material 270],BDEFHJKL
9,CCCCCCOC(=O)C(C)CC (stereo not shown) [Material 273],BDEFHJKL
10,CCCCCCOC(=O)c1ccco1 [Material 275],DEFHJK
11,CC(=O)OC1CC2CC1C1CC=CC21 (stereo not shown) [Material 281],CEFGJK
12,CCCCCCCO [Material 282],ACEFGIKL
13,CCCCCCCOC(C)=O [Material 283],ADEFHKL
14,CCCCCCC=O [Material 284],ACHIKL
15,O=Cc1ccc2c(c1)OCO2 [Material 287],BCGIK
16,CC(C)=CCCC(C)=CC#N [Material 302],BCEFHKL
17,CC(C)=CCC/C(C)=C/COC=O [Material 306],BCEFHJK
18,CCCCCCCC(=O)OC/C=C(\C)CCC=C(C)C [Material 308],DEFHJ
19,CC(C)=CCC/C(C)=C/COC(=O)c1ccccc1 [Material 310],DFHJ
20,CCC(C)C(=O)N(C)c1ccccc1 (stereo not shown) [Material 314],BCEFHJK
21,CC1=CCC(C(C)C)=CC1 [Material 319],ADEFGIJKL
22,CC1=C2CC(C(C)(C)O)CCC2(C)CCC1 (stereo not shown) [Material 329],DFHJK
23,CC1COCc2cc3c(cc21)C(C)(C)C(C)C3(C)C (stereo not shown) [Material 335],DEFHJK

row,SMILES,Comment Code
1,CCC(=O)OC1CC2C3C=CCC3C1C2(C)C (stereo not shown) [Material 343],DEFHJK
2,C/C=C1/CC2CC1C1CCC(=O)OC21 (stereo not shown) [Material 353],CEFGJK
3,CCc1ccccc1CC(C)(C)C=O [Material 354],BDHJK
4,CCOC(=O)OC1CCCCC1C(C)(C)C (stereo not shown) [Material 355],BDFHJK
5,CC(O)C(C)/C=C1\C[C@H]2C[C@@H]1[C@@H]1C=CC[C@H]21 (stereo partly shown) [Material 359],DEFHJK
6,CC(=O)OC1CC2C3C=CCC3C1C2(C)C (stereo not shown) [Material 360],DEFHJK
7,CCOC(=O)OC1CCCCC1C(C)(C)C (stereo not shown) [Material 365],ACFHIKL
8,CC12CCC(C1)C(C)(C)C2O (stereo not shown) [Material 366],ACGIJKL
9,CC12CCC(CC1)C(C)(C)O2 [Material 376],ADEFGIJKL
10,CC(=O)O.CCOc1cc(C=O)ccc1O [Material 379],CHJ
11,CCCCCCCC(=O)OCC [Material 387],BDEFHJKL
12,CCOC(=O)C=Cc1ccccc1 [Material 400],BCEFHK
13,CCOC(=O)C(C)C1CCCCC1 (stereo not shown) [Material 412],BDFHIJKL
14,C=C(C)C1CCC(C)C(=O)C1 (stereo not shown) [Material 419],ACGIJKL
15,CC1CCOC(c2ccccc2)C1 (stereo not shown) [Material 420],BDEFHJK
16,CCCCCC1=C(C)CCC1=O [Material 438],BCFHIJKL
17,CC1CC(=O)CC(C)(C)C1 (stereo not shown) [Material 439],ACEFGIJKL
18,CCCc1ccc(O)c(OC)c1 [Material 440],CEFHIJK
19,CC(=O)OC1CC2CC1C1CCCC21 (stereo not shown) [Material 441],DEFHJKL
20,O=C1CCc2ccccc2O1 [Material 442],BCGIKL
21,C=C(C)C1CCC(C)C(=O)C1 (stereo not shown) [Material 443],ACGIJKL
22,CC(=O)OC(C)(C)C1CCC(C)CC1 (stereo not shown) [Material 447],BDEFHIJKL
23,CC(=O)CCC1C(C)=CCCC1(C)C (stereo not shown) [Material 448],BDHIJK

row,SMILES,Comment Code
1,c1ccc(COCc2ccccc2)cc1 [Material 454],DEFHJK
2,CCCCOC(=O)c1ccccc1C(=O)OCCCC [Material 455],DEFHJ
3,CCCCCC1CCCC1=O (stereo not shown) [Material 469],BDFHIKL
4,COC(=O)C1(C)CCC(C)CC1 (stereo not shown) [Material 477],ADEFHIJKL
5,CC(=O)OCCC1CCCCC1 [Material 481],BDEFHJKL
6,CCCC(=O)OC1CC2CC1C1CC=CC21 (stereo not shown) [Material 484],DEFHJK
7,CC(C)C(=O)OC1CC2CC1C1C=CCC21 (stereo not shown) [Material 487],DEFHJK
8,C=CC1(C)Cc2occ(C)c2CC1C(=C)C (stereo not shown) [Material 488],DHJK
9,C=CC(C)=CC=CC(=C)C [Material 495],ADEFGIKL
10,CC(C)(O)CCC1CCCCC1 [Material 496],BDEFGIJK
11,O=C1CCCCCCC/C=C/CCCCCCC1 [Material 501],DEFGJ
12,C=CC(C)(C#N)Cc1ccccc1 (stereo not shown) [Material 504],BDHJK
13,CC(C)=CCCC(C)CC#N (stereo not shown) [Material 509],BCEFGIKL
14,CC(C)=CCCC(C)CCOC(=O)Cc1ccccc1 (stereo not shown) [Material 510],DFHJ
15,CC(C)=CCCC(C)CCOC=O (stereo not shown) [Material 512],BCEFGJKL
16,CC(C)=CCCC(C)CCOC(=O)c1ccccc1 (stereo not shown) [Material 515],DFHJ
17,CC(C)=CCCC(C)CCO (stereo not shown) [Material 517],BCHIJKL
18,CC(C)=CCCC(C)CC=O (stereo not shown) [Material 518],ACHIJKL
19,CC1CCC2CC1C2(C)C (stereo not shown) [Material 525],ADEFGIJKL
20,CC/C=C\CC1=C(C)CCC1=O [Material 526],BCHIJKL
21,C/C=C\c1ccc(O)c(OC)c1 [Material 528],CEFHIK
22,CC/C=C\CCOC(=O)CCCC [Material 535],BDEFHJKL
23,C/C=C(\C)C(=O)OCC/C=C\CC [Material 536],BDEFHJK

# From patent publication US20160089464A1, “MALODOR REDUCTION COMPOSITIONS” (The Procter & Gamble Company, priority 2014, published 2016)
